# In ChEMBL document CHEMBL1201862, “PubChem BioAssay data set” (2004):
#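 Where inhibition never reached the appropriate level, the endpoint shown equals the highest concentration tested. Otherwise, values were interpolated linearly from a five-concentration, 48-hour dose response in 96-well plates. GI50 marks 50% less growth.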 The source made the active and inactive calls. Rule as the data show it: active = GI50 up to about 1.1 µM and inactive = higher.
# Tests used:
# Experiment in all cases: NCI-60 cell line screen, 48 h
# HOP-62 = tested on: HOP-62
# SF-295 = tested on: SF-295
# NCI-H226 = tested on: NCI-H226
# EKVX = tested on: EKVX
# SNB-19 = tested on: SNB-19
# RPMI-8226 = tested on: RPMI-8226
# M14 = tested on: M14
# SNB-75 = tested on: SNB-75
# A549 = tested on: A549
# CCRF-CEM = tested on: CCRF-CEM
# NCI-H460 = tested on: NCI-H460
# 786-0 = tested on: 786-0
Structure (SMILES),GI50 (HOP-62),GI50 (SF-295),GI50 (NCI-H226),GI50 (EKVX),GI50 (SNB-19),GI50 (RPMI-8226),GI50 (M14),GI50 (SNB-75),GI50 (A549),GI50 (CCRF-CEM),GI50 (NCI-H460),GI50 (786-0)
Nc1nc(O)c2c(ncn2CC(O)CO)n1 (stereo unspecified),> 100 µM (inactive),> 100 µM (inactive),> 100 µM (inactive),> 100 µM (inactive),> 100 µM (inactive),> 100 µM (inactive),> 100 µM (inactive),> 100 µM (inactive),> 100 µM (inactive),> 100 µM (inactive),> 100 µM (inactive),> 100 µM (inactive)
CCOC(=O)C(C)(C)Oc1ccc2c(-c3ccc(Cl)cc3)c(-c3ccc(Cl)cc3)c(=O)oc2c1,> 100 µM (inactive),> 100 µM (inactive),62.2 µM (inactive),> 100 µM (inactive),> 100 µM (inactive),80 µM (inactive),> 100 µM (inactive),> 100 µM (inactive),> 100 µM (inactive),> 100 µM (inactive),> 100 µM (inactive),> 100 µM (inactive)
CC1(OCc2ccccc2)C(=O)N2C1N(C(=O)OCc1ccccc1)CC2(C)C (stereo unspecified),82.4 µM (inactive),38.5 µM (inactive),41.4 µM (inactive),67.8 µM (inactive),54.2 µM (inactive),27.5 µM (inactive),66.8 µM (inactive),32.4 µM (inactive),38.8 µM (inactive),35.1 µM (inactive),42.6 µM (inactive),> 100 µM (inactive)
CCN(CC)C(=O)N1CCN(C=S)CC1,> 100 µM (inactive),–,> 100 µM (inactive),> 100 µM (inactive),> 100 µM (inactive),–,> 100 µM (inactive),> 100 µM (inactive),> 100 µM (inactive),> 100 µM (inactive),> 100 µM (inactive),> 100 µM (inactive)
Cn1nc2ccc3nccc(NCCNCCO)c3c2n1,47.4 µM (inactive),39.3 µM (inactive),41.2 µM (inactive),–,73.5 µM (inactive),26.9 µM (inactive),32.5 µM (inactive),45.2 µM (inactive),40.2 µM (inactive),> 100 µM (inactive),18.1 µM (inactive),38.5 µM (inactive)
Cn1c(=O)ccc2cc(C(=O)c3ccccc3)ccc21,> 100 µM (inactive),79.3 µM (inactive),21.2 µM (inactive),34.2 µM (inactive),68.1 µM (inactive),47.5 µM (inactive),> 100 µM (inactive),12.3 µM (inactive),71.1 µM (inactive),69.7 µM (inactive),> 100 µM (inactive),83.2 µM (inactive)
N#Cc1cc([N+](=O)[O-])ccc1NC(=O)C(=O)Nn1c(S)nc2ccccc2c1=O,> 100 µM (inactive),> 100 µM (inactive),> 100 µM (inactive),> 100 µM (inactive),> 100 µM (inactive),> 100 µM (inactive),> 100 µM (inactive),> 100 µM (inactive),> 100 µM (inactive),> 100 µM (inactive),> 100 µM (inactive),> 100 µM (inactive)
CCOC(=O)C(C)(C)Oc1ccc2c(-c3ccccc3)cc(=O)oc2c1,23.1 µM (inactive),40.9 µM (inactive),33.3 µM (inactive),43 µM (inactive),42.1 µM (inactive),18.1 µM (inactive),36.6 µM (inactive),12.9 µM (inactive),38.9 µM (inactive),21.7 µM (inactive),> 100 µM (inactive),33.7 µM (inactive)
O=[N+]([O-])c1ccc(-c2ccc(C3=Nn4c(CNc5ccccc5Cl)nnc4SC3)o2)cc1,> 100 µM (inactive),> 100 µM (inactive),> 100 µM (inactive),–,> 100 µM (inactive),> 100 µM (inactive),> 100 µM (inactive),> 100 µM (inactive),> 100 µM (inactive),–,> 100 µM (inactive),> 100 µM (inactive)
NNC(=O)C(=O)N/N=C1/CCCC1C(=O)CCC(=O)Nc1ccc(Cl)cc1 (stereo unspecified),> 100 µM (inactive),> 100 µM (inactive),> 100 µM (inactive),> 100 µM (inactive),> 100 µM (inactive),> 100 µM (inactive),52.2 µM (inactive),> 100 µM (inactive),> 100 µM (inactive),> 100 µM (inactive),> 100 µM (inactive),> 100 µM (inactive)
Cc1cccc(C(C)C)c1NC(=O)CCl,41.9 µM (inactive),92 µM (inactive),> 100 µM (inactive),20.6 µM (inactive),36.5 µM (inactive),86.7 µM (inactive),65.8 µM (inactive),33.7 µM (inactive),> 100 µM (inactive),30.5 µM (inactive),64.6 µM (inactive),53.8 µM (inactive)
COc1ccc(NC(=O)C2C(=O)N(c3ccc(OC)cc3)C(=O)/C2=N/O)cc1 (stereo unspecified),23.5 µM (inactive),26.4 µM (inactive),23.8 µM (inactive),32.2 µM (inactive),29.4 µM (inactive),> 71.9 µM (inactive),34 µM (inactive),32.2 µM (inactive),33.9 µM (inactive),> 100 µM (inactive),21.9 µM (inactive),20.1 µM (inactive)
c1ccc2c(c1)N=C(c1cccc3ccccc13)CC(c1ccc3c(c1)OCO3)S2 (stereo unspecified),> 100 µM (inactive),53.6 µM (inactive),> 100 µM (inactive),> 100 µM (inactive),> 100 µM (inactive),–,25.4 µM (inactive),> 100 µM (inactive),> 100 µM (inactive),> 100 µM (inactive),> 100 µM (inactive),> 100 µM (inactive)
CN(C)CCNC(=O)c1cccc2c1nc(-c1ccc(F)cc1)c1ccccc12,1.22 µM (inactive),6.05 µM (inactive),2.06 µM (inactive),9.38 µM (inactive),6.93 µM (inactive),–,5.81 µM (inactive),10.7 µM (inactive),0.935 µM (active),1.97 µM (inactive),0.417 µM (active),4.65 µM (inactive)
CC(=O)/C(=N\O)C(=O)NCc1ccccc1,> 100 µM (inactive),> 100 µM (inactive),> 100 µM (inactive),> 100 µM (inactive),> 100 µM (inactive),> 100 µM (inactive),–,> 100 µM (inactive),> 100 µM (inactive),> 100 µM (inactive),35.2 µM (inactive),> 100 µM (inactive)
O=C(CN1CCN(c2ccccc2)CC1)N1CCc2c([nH]c3ccccc23)C1c1cccnc1 (stereo unspecified),34.1 µM (inactive),23.7 µM (inactive),> 100 µM (inactive),> 100 µM (inactive),38.2 µM (inactive),> 100 µM (inactive),54.2 µM (inactive),6.92 µM (inactive),31.6 µM (inactive),> 100 µM (inactive),36.9 µM (inactive),15.3 µM (inactive)
CCCCCCCCCCSS(=O)(=O)c1ccc(C)cc1,19.9 µM (inactive),6.58 µM (inactive),19 µM (inactive),12.4 µM (inactive),10.5 µM (inactive),3.41 µM (inactive),10.4 µM (inactive),2.3 µM (inactive),14.9 µM (inactive),2.24 µM (inactive),8.13 µM (inactive),6.1 µM (inactive)
